Assay results published in the kinase profiling compilation of Christmann-Franck et al. (2016).

Columns and labels:
Test in all cases: radiometric filter-binding kinase assay
RPS6KA5 KD1 KD2 (human) = RPS6KA5 KD1 KD2 (human) (UniProt O75582)
DYRK2 (human) = DYRK2 (human) (UniProt Q92630)
PAK7 (human) = PAK7 (human) (UniProt Q9P286)
CSNK2A1 (human) = CSNK2A1 (human) (UniProt P68400); conditions: compound 10.0 µM
HIPK1 (human) = HIPK1 (human) (UniProt Q86Z02)
PAK4 (human) = PAK4 (human) (UniProt O96013)
BTK (human) = BTK (human) (UniProt Q06187)
NEK6 (human) = NEK6 (human) (UniProt Q9HC98)
PRKCZ (human) = PRKCZ (human) (UniProt Q05513)
TAOK1 (human) = TAOK1 (human) (UniProt Q7L7X3)
MARK1 (human) = MARK1 (human) (UniProt Q9P0L2)
DYRK3 (human) = DYRK3 (human) (UniProt O43781)
DYRK1A (human) = DYRK1A (human) (UniProt Q13627)
MAPK14 (human) = MAPK14 (human) (UniProt Q16539)
EPHA2 (human) = EPHA2 (human) (UniProt P29317)
ROCK2 (rat) = conditions: accession and sequence are those of the human protein
MST4 (human) = MST4 (human) (UniProt Q9P289)
PAK6 (human) = PAK6 (human) (UniProt Q9NQU5)
MAP3K9 (human) = MAP3K9 (human) (UniProt P80192)
HIPK3 (human) = HIPK3 (human) (UniProt Q9H422)
EEF2K (human) = EEF2K (human) (UniProt O00418)
DAPK1 (human) = DAPK1 (human) (UniProt P53355)
MAPK11 (human) = MAPK11 (human) (UniProt Q15759)
ERBB4 (human) = ERBB4 (human) (UniProt Q15303)
[1] = system: AKT1 (human), P31749 [S473D]
EPHB3 (human) = EPHB3 (human) (UniProt P54753)
NUAK1 (human) = NUAK1 (human) (UniProt O60285)
MARK3 (human) = MARK3 (human) (UniProt P27448)
EPHB1 (human) = EPHB1 (human) (UniProt P54762); conditions: compound 1.0 µM
HIPK2 (human) = HIPK2 (human) (UniProt Q9H2X6)
CaMK1 (human) = CaMK1 (human) (UniProt Q14012)
LCK (mouse) = conditions: accession and sequence are those of the human protein
IKBKE (human) = IKBKE (human) (UniProt Q14164); conditions: compound 10.0 µM
MAPKAPK5 (human) = MAPKAPK5 (human) (UniProt Q8IW41)
MAPK13 (human) = MAPK13 (human) (UniProt O15264)
MAP2K6 (human) = MAP2K6 (human) (UniProt P52564)

Sequence of TAOK1 (human) (Q7L7X3 whole entry, looked up): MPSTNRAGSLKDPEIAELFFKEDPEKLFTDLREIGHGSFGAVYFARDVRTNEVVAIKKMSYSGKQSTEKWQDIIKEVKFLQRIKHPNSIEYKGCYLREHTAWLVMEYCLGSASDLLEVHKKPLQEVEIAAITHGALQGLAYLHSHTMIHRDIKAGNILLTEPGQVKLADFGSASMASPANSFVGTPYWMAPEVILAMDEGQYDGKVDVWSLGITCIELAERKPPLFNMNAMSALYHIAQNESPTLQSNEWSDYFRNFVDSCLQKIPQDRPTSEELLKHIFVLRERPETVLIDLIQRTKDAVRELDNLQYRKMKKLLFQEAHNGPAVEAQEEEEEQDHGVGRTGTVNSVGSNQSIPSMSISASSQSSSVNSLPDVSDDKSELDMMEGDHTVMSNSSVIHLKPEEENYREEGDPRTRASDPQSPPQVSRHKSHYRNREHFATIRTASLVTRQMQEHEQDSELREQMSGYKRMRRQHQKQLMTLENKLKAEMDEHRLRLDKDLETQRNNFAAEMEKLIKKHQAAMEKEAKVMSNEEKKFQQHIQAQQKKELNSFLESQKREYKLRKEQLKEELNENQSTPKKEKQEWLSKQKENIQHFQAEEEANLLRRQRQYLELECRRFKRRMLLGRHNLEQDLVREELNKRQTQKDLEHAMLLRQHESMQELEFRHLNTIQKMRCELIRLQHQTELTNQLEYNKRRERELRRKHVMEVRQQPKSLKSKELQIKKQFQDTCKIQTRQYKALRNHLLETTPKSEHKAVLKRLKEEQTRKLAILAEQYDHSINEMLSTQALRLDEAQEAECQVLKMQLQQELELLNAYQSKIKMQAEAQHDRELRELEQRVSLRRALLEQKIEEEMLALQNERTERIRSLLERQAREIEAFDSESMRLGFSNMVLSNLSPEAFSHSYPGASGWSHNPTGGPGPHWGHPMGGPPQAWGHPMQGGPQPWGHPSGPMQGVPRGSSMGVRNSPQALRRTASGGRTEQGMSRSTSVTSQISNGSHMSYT
Sequence of NUAK1 (human) (O60285 whole entry, looked up): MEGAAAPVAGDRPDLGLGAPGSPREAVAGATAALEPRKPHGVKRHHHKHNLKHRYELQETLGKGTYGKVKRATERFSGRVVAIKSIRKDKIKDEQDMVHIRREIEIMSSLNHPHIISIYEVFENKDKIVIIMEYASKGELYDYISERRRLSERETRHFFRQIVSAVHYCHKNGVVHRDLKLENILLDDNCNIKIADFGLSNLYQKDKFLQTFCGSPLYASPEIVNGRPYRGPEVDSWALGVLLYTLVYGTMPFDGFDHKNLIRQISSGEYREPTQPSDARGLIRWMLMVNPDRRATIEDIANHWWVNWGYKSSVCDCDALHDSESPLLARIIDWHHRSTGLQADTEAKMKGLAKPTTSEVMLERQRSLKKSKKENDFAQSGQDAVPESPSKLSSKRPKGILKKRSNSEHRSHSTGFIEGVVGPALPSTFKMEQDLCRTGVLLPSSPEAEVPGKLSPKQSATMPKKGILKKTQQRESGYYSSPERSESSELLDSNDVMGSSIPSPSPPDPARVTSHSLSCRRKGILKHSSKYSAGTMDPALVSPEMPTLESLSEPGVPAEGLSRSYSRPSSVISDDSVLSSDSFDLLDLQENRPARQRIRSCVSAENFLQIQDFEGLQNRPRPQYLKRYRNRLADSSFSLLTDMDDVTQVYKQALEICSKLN
Sequence of CaMK1 (human) (Q14012 whole entry, looked up): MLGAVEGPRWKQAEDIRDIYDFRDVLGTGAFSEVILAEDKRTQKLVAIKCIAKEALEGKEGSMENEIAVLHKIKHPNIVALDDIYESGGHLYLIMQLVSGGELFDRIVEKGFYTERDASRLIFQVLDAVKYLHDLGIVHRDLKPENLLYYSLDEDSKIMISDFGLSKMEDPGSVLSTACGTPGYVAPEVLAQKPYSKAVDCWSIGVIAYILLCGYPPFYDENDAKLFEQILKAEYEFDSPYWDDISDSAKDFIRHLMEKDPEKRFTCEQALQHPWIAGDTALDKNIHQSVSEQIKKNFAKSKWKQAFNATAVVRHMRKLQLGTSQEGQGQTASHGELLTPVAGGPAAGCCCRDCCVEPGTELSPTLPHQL
Sequence of MAPKAPK5 (human) (Q8IW41 whole entry, looked up): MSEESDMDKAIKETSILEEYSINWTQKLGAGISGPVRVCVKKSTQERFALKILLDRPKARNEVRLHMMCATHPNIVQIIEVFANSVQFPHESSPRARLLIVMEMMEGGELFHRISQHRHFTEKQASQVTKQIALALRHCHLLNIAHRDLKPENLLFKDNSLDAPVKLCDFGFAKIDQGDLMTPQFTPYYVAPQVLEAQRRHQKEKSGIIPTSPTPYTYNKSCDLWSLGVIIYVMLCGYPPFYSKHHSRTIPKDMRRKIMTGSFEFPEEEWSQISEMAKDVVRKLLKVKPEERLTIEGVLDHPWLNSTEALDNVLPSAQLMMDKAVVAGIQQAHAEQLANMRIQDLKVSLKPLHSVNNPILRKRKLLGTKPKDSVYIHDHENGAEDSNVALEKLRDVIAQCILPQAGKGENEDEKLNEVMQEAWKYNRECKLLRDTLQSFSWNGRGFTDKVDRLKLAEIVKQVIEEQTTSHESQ
Sequence of MARK1 (human) (Q9P0L2 whole entry, looked up): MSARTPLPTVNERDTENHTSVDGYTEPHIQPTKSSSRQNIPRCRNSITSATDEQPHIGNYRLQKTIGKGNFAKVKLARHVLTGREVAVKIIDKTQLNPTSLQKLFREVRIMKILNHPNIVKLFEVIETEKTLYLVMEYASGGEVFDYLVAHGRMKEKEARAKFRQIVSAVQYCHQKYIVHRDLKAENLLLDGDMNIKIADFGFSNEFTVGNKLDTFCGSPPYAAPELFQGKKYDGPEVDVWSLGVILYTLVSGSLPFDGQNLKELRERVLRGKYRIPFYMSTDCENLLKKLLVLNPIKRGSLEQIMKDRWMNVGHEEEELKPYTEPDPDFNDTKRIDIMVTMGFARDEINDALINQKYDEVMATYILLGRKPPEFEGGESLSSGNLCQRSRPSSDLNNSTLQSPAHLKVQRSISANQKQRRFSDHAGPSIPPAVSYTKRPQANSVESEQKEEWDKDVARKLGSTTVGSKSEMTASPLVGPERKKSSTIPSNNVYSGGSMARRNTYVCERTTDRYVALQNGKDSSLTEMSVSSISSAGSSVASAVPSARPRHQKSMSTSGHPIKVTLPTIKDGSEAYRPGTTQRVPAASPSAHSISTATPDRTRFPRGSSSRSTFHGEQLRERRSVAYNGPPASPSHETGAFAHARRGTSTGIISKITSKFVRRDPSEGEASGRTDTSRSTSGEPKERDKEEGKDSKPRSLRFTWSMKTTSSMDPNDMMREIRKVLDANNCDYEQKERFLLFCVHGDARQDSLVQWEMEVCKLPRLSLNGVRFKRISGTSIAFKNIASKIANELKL
Sequence of HIPK3 (human) (Q9H422 whole entry, looked up): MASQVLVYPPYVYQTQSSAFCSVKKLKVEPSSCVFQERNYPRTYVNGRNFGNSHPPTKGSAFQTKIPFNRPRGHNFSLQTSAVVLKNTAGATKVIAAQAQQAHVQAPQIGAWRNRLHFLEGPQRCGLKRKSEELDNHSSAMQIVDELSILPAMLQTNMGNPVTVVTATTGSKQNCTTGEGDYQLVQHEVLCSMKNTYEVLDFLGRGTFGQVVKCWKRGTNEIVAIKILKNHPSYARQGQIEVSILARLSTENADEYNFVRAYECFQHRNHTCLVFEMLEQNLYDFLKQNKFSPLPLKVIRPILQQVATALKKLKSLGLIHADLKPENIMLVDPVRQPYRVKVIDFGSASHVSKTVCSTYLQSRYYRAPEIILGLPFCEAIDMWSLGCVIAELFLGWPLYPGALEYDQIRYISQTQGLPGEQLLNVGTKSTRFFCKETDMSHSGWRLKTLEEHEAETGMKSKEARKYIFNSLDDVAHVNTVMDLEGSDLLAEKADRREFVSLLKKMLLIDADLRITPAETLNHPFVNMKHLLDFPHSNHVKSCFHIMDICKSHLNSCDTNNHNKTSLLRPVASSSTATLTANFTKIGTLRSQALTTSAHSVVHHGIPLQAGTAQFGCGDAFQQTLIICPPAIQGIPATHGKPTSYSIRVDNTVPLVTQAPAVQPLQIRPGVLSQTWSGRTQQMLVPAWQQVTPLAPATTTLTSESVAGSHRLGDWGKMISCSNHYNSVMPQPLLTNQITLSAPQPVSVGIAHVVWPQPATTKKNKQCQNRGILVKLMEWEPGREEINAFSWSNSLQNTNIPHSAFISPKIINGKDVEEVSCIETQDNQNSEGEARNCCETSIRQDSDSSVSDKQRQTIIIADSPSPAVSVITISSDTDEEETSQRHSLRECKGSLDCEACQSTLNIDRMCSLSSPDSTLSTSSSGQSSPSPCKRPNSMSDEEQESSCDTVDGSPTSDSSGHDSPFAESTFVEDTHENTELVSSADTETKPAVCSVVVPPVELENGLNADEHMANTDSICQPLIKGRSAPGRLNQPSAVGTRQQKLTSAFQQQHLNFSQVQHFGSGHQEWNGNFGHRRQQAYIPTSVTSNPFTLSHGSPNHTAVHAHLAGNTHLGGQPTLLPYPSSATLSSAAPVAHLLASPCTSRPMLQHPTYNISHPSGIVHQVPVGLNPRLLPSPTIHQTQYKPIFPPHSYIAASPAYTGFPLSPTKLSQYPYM
Sequence of AKT1 (human), P31749 [S473D] (P31749 whole entry S473D, looked up): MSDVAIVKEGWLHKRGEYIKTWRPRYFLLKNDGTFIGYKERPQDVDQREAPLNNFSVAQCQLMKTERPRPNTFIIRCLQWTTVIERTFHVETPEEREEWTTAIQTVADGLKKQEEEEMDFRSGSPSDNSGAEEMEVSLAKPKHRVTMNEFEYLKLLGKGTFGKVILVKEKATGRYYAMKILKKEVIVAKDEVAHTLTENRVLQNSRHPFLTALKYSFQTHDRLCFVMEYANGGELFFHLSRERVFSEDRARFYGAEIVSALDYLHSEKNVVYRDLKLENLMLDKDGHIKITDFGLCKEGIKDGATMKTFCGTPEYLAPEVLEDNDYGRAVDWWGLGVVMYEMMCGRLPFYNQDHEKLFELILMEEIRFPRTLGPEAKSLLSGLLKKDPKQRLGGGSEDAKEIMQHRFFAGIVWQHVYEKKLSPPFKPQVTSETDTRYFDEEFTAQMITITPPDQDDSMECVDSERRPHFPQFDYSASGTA

NC(=O)c1c(NC(=O)C2CC2)sc2c1CCCC2
residual activity (RPS6KA5 KD1 KD2 (human); compound 1.0 µM): 108%
residual activity (RPS6KA5 KD1 KD2 (human); compound 10.0 µM): 108%
residual activity (DYRK2 (human); compound 1.0 µM): 109%
residual activity (DYRK2 (human); compound 10.0 µM): 86%
residual activity (PAK7 (human); compound 1.0 µM): 100%
residual activity (PAK7 (human); compound 10.0 µM): 54%
residual activity (CSNK2A1 (human)): 106%
residual activity (HIPK1 (human); compound 1.0 µM): 100%
residual activity (HIPK1 (human); compound 10.0 µM): 87%
residual activity (PAK4 (human); compound 1.0 µM): 93%
residual activity (PAK4 (human); compound 10.0 µM): 46%
residual activity (BTK (human); compound 1.0 µM): 90%
residual activity (BTK (human); compound 10.0 µM): 68%
residual activity (NEK6 (human); compound 1.0 µM): 107%
residual activity (NEK6 (human); compound 10.0 µM): 93%
residual activity (PRKCZ (human); compound 1.0 µM): 104%
residual activity (PRKCZ (human); compound 10.0 µM): 104%
residual activity (TAOK1 (human); compound 1.0 µM): 87%
residual activity (TAOK1 (human); compound 10.0 µM): 69%
residual activity (MARK1 (human); compound 1.0 µM): 93%
residual activity (MARK1 (human); compound 10.0 µM): 67%
residual activity (DYRK3 (human); compound 1.0 µM): 111%
residual activity (DYRK3 (human); compound 10.0 µM): 109%
residual activity (DYRK1A (human); compound 1.0 µM): 85%
residual activity (DYRK1A (human); compound 10.0 µM): 48%
residual activity (MAPK14 (human); compound 1.0 µM): 100%
residual activity (MAPK14 (human); compound 10.0 µM): 101%
residual activity (EPHA2 (human); compound 1.0 µM): 87%
residual activity (EPHA2 (human); compound 10.0 µM): 52%
residual activity (ROCK2 (rat); compound 1.0 µM): 95%
residual activity (ROCK2 (rat); compound 10.0 µM): 91%
residual activity (MST4 (human); compound 1.0 µM): 100%
residual activity (MST4 (human); compound 10.0 µM): 57%
residual activity (PAK6 (human); compound 1.0 µM): 83%
residual activity (PAK6 (human); compound 10.0 µM): 80%
residual activity (MAP3K9 (human); compound 1.0 µM): 72%
residual activity (MAP3K9 (human); compound 10.0 µM): 32%
residual activity (HIPK3 (human); compound 1.0 µM): 89%
residual activity (HIPK3 (human); compound 10.0 µM): 102%
residual activity (EEF2K (human); compound 1.0 µM): 97%
residual activity (EEF2K (human); compound 10.0 µM): 90%
residual activity (DAPK1 (human); compound 1.0 µM): 102%
residual activity (DAPK1 (human); compound 10.0 µM): 86%
residual activity (MAPK11 (human); compound 1.0 µM): 99%
residual activity (MAPK11 (human); compound 10.0 µM): 98%
residual activity (ERBB4 (human); compound 1.0 µM): 106%
residual activity (ERBB4 (human); compound 10.0 µM): 98%
residual activity ([1]; compound 1.0 µM): 115%
residual activity ([1]; compound 10.0 µM): 102%
residual activity (EPHB3 (human); compound 1.0 µM): 115%
residual activity (EPHB3 (human); compound 10.0 µM): 109%
residual activity (NUAK1 (human); compound 1.0 µM): 75%
residual activity (NUAK1 (human); compound 10.0 µM): 30%
residual activity (MARK3 (human); compound 1.0 µM): 90%
residual activity (MARK3 (human); compound 10.0 µM): 69%
residual activity (EPHB1 (human)): 117%
residual activity (HIPK2 (human); compound 1.0 µM): 94%
residual activity (HIPK2 (human); compound 10.0 µM): 52%
residual activity (CaMK1 (human); compound 1.0 µM): 98%
residual activity (CaMK1 (human); compound 10.0 µM): 70%
residual activity (LCK (mouse); compound 1.0 µM): 98%
residual activity (LCK (mouse); compound 10.0 µM): 77%
residual activity (IKBKE (human)): 109%
residual activity (MAPKAPK5 (human); compound 1.0 µM): 96%
residual activity (MAPKAPK5 (human); compound 10.0 µM): 62%
residual activity (MAPK13 (human); compound 1.0 µM): 116%
residual activity (MAPK13 (human); compound 10.0 µM): 97%
residual activity (MAP2K6 (human); compound 1.0 µM): 109%
residual activity (MAP2K6 (human); compound 10.0 µM): 99%
